The source of these data is article PMC7503933, “Benzyl Furanones and Pyrones from the Marine-Derived Fungus Aspergillus terreus Induced by Chemical Epigenetic Modification” (Molecules, 2020).

In the assay the target is T1, PTP1B (Homo sapiens, UniProt P18031).
T1 construct: gene PTPN1; human recombinant (Abcam ab51277)
T1 sequence (P18031 1-435): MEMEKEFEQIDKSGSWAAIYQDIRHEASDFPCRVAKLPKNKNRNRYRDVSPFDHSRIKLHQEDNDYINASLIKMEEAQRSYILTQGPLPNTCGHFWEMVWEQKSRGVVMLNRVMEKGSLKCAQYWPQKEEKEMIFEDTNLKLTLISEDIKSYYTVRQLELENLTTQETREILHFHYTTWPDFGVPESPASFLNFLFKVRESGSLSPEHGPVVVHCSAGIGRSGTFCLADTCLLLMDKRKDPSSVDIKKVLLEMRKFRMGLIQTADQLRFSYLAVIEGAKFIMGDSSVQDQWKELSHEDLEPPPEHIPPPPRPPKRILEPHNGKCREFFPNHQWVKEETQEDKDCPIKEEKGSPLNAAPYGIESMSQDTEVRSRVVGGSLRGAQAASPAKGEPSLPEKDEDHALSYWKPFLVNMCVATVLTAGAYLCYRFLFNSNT
Nature of the assay: recombinant PTP1B pNPP hydrolysis assay, absorbance […] nm. Format: biochemical.

The IC50 is the point on the concentration scale where inhibition reaches its midpoint. Turning to `COc1cc(O)cc(C)c1C[C@@]1(C(N)=O)OC(C)=CC1=O`, the IC50 is 17.3 µM.
The same measure for `COc1cc(O)cc(C)c1CC1(C(N)=O)OC(C)=CC1=O` (racemic) [(±)-1, Asperfuranone (1)]: 45.8 µM; for `COc1cc(O)cc(C)c1C[C@]1(C(N)=O)OC(C)=CC1=O` [(−)-1, (−)-asperfuranone]: 35.5 µM.
`COc1cc(O)cc(C)c1Cc1c(O)cc(C)oc1=O` [compound 2, asperpyranone A]: the IC50 stood at 42.3 µM.
